# Measurements published in US20100137411A1, “RAS-MEDIATED EPIGENETIC SILENCING EFFECTORS AND USES THEREOF” (University of Massachusetts, priority 2007, published 2010).
# B1: DNMT1: shRNA knocking down DNMT1; Open Biosystems V2MM_46797 or synthesized shRNA SEQ ID NO: 5 (nucleic acid)
# chain: TGCTGTTGACAGTGAGCGCGCCCATCCTCAGGGACCATATTAGTGAAGCCACAGATGTAATATGGTCCCTGAGGATGGGCTTGCCTACTGCCTCGGA
# Key:
# Format in all cases: cell-based, mouse
# Fas = test: Immunoblot analysis of Fas re-expression in K-ras NIH 3T3 cells; settings: 10 μM 5-aza for 72 h
# Procedure: (§1) Cell culture. NIH 3T3 (ATCC# CRL-1658) and K:Molv NIH 3T3 (ATCC# CRL-6361; referred to here as K-ras NIH 3T3) cells were maintained in DMEM supplemented with 10% FCS at 37° C. and 5% CO2. For 5-aza-2′-deoxycytidine (5-aza) treatment, K-ras NIH 3T3 cells were treated with 10 μM 5-aza for 72 h.
# Immunoblot analysis. To prepare cell extracts, K-ras NIH 3T3 knockdown cell lines were harvested 7 days following retroviral transduction and puromycin selection (1.5 μg ml^−1) and lysed by boiling in 1× SDS sample buffer (Laemmli buffer) for 5 min. Proteins were resolved by 12% SDS-PAGE. Immunoblot analysis was performed using an anti-Fas (sc-716; Santa Cruz) or anti-p21 Ras (ab16795; Abcam) antibody to monitor expression of K-Ras (as a loading control), and an appropriate HRP-conjugated secondary antibody. Proteins were visualized using SuperSignal West Pico Luminol/Enhancer Solution (Pierce).
# Fas promoter [1] = test: Methylated DNA immunoprecipitation (MeDIP) of the Fas promoter; settings: K-ras NIH 3T3 cells, 10 μM 5-aza for 72 h
# Excerpt: To facilitate analysis of the methylation status of these three regions in the 28 K-ras NIH 3T3 KD cell lines we established and validated a rapid methylated DNA immunoprecipitation (MeDIP) assay, in which the antibody is directed against 5-methyl-cytosine (Weber, M. et al., Nat. Genet. 37, 853-862 (2005)). […] We then assessed the three hypermethylated Fas promoter regions in each of the 28 K-ras NIH 3T3 KD cell lines.
# (§2) Chromatin immunoprecipitation (ChIP) and methylated DNA immunoprecipitation (MeDIP). ChIP assays were performed using extracts prepared 7 days following retroviral transduction and puromycin selection. […] MeDIP and ChIP products were visualized by autoradiography, or analyzed by quantitative real-time PCR using Platinum SYBR Green qPCR SuperMix-UDG with Rox (Invitrogen). […] Quantitative real time RT-PCR. […] Reverse transcription was performed using SuperScript II Reverse Transcriptase (Invitrogen) as per the manufacturer's instructions, followed by quantitative real-time PCR as described above. […] Tumour dimensions were measured every 3 days from the time of appearance of the tumours, and tumour volume was calculated using the formula π/6×(length)×(width)^2. […]
# [2] = system: Sfrp1, Par4/Pawr, Plagl1, H2-K1 and Lox; test: qRT-PCR expression of other epigenetically silenced genes in K-ras NIH 3T3 cells; settings: 10 μM 5-aza for 72 h
# Procedure: as §1, §2
# Fas promoter [3] = test: Bisulphite sequencing of the Fas promoter; settings: shRNA knockdown
# Procedure: Bisulphite sequencing. Bisulphite modification was carried out essentially as described (Frommer, M. et al., Proc. Natl. Acad. Sci. USA 89, 1827-1831 (1992)) except that hydroquinone was used at a concentration of 125 mM during bisulphite treatment carried out in the dark and DNA was desalted on Qiaquick columns (Qiagen) after the bisulphite reaction. The regions analyzed were amplified by nested PCR. The first round comprised 24 cycles at 94° C. for 1 min, 48° C. for 1 min 30 s, and 72° C. for 1 min. One-tenth of the product was used as substrate for the second round of PCR comprising 28 cycles at 94° C. for 1 min, 48° C. for 1 min 30 s, 72° C. for 1 min.
Molecule,Fas expression (Fas),hypermethylation of Fas promoter TSS/DS region (MeDIP) (Fas promoter [1]),"expression of Sfrp1, Par4/Pawr, Plagl1, H2-K1 and Lox (all five genes) [2]",hypermethylation of three Fas promoter regions (bisulphite sequencing) (Fas promoter [3]; H-ras transformed C3H10T1/2 cells),hypermethylation of TSS/DS region of the Fas promoter (bisulphite sequence analysis) (Fas promoter [3]; K-ras NIH 3T3 cells)
"Nc1ncn([C@H]2C[C@H](O)[C@@H](CO)O2)c(=O)n1 [5-aza, 5-aza-2′-deoxycytidine]",restored Fas expression,not hypermethylated,re-expressed,,
B1,,,,not,no longer hypermethylated
